From patent publication US20250297135A1, “CERIA AND HYDROXAMIC ACID CMP COMPOSITION” (ENTEGRIS, INC., priority 2024, published 2025)
Like-named read-outs stand apart in the source and are kept apart here.

Assays:
[1] = pH 5.5
Method: (§1) To measure the aqueous solubility, a supersaturated solution of each hydroxamic acid compound was prepared in deionized water. The pH was adjusted to 5.5 using nitric acid and the supersaturated solution was stirred overnight. Excess solids were removed via filtration and the hydroxamic acid compound in solution was quantified using ^1H NMR with a t-BuOH standard.

[2] = Aqueous solubility from supersaturated solution, 1H NMR quantification; settings: deionized water, pH adjusted to 5.5 using nitric acid, stirred overnight, filtered
Method: as §1

Compound | Aqueous Solubility [1] [%] | Aqueous Solubility [2] [%]
O=C(NO)c1ccc(F)cc1 [4FBHA, 4-Fluorobenzohydroxamic acid] | 1.0 | 
COc1ccc(CCCCC(=O)NO)cc1 [4pAnisBuHA, 4-(p-anisyl) butyrohydroxamic acid] | 0.5 | 
Cc1ccccc1C(=O)NO [4MeBHA, methylbenzo hydroxamic acid] |  | 0.5
